Experimental data taken from US20250345284A1, “LIPID NANOPARTICLE (LNP) COMPOSITIONS AND METHODS OF USE THEREOF” (The Trustees Of The University of Pennsylvania, priority 2021, published 2025).

How the values were obtained:
[1] = Z-average diameter and polydispersity index by dynamic light scattering (Zetasizer Nano); assay type: physicochemical; conditions: LNPs with 12.5%, 25% and 50% substitution of the named hydroxycholesterol
[2] = Stability of 100% hydroxycholesterol substitution LNPs over 28 days; conditions: 100% substitution of hydroxycholesterol for cholesterol, vs S2
Source text: FIG. 8B depicts measurements of z-average diameter, PDI, mRNA concentration, and encapsulation efficiency for S2 LNPs and LNP formulations with 100% cholesterol substitution taken over 28 days to assess LNP stability. […] Error bars denote standard deviation. FIG. 8C depicts the pKa, zeta potential, z-average diameter, and PDI measurements for the exemplary LNPs of the present disclosure. n=3. Error bars denote standard deviation.
Characterization parameters assessed over the 28-day period include z-average diameter, PDI, mRNA concentration, and encapsulation efficiency (Table 3).

Row | SMILES | PDI (in words) [1] | z-average diameter (in words) [1] | stability (all characterization parameters) [2]
1 | CC(C)[C@@H](O)CC[C@@H](C)[C@H]1CC[C@H]2[C@@H]3CC=C4C[C@@H](O)CC[C@]4(C)[C@H]3CC[C@]12C [B2, 24 (S)-hydroxycholesterol] | more polydisperse | increased particle diameters | –
2 | CC(C)CCC[C@@H](C)[C@H]1CC[C@H]2[C@@H]3[C@@H](O)C=C4C[C@@H](O)CC[C@]4(C)[C@H]3CC[C@]12C [A2, 7β-hydroxycholesterol] | remained within expected ranges | remained within expected ranges | comparable on all parameters on all days to S2
3 | CC(C)CCC[C@@H](C)[C@H]1CC[C@H]2[C@@H]3[C@H](O)C=C4C[C@@H](O)CC[C@]4(C)[C@H]3CC[C@]12C [A1, 7α-hydroxycholesterol] | remained within expected ranges | remained within expected ranges | comparable on all parameters on all days to S2
4 | C[C@H](CCCC(C)(C)O)[C@H]1CC[C@H]2[C@@H]3CC=C4C[C@@H](O)CC[C@]4(C)[C@H]3CC[C@]12C [B3, 25-hydroxycholesterol] | more polydisperse | increased particle diameters | –
5 | CC(C)CCC[C@](C)(O)[C@H]1CC[C@H]2[C@@H]3CC=C4C[C@@H](O)CC[C@]4(C)[C@H]3CC[C@@]21C [B1, 20 (S)-hydroxycholesterol] | remained within expected ranges | remained within expected ranges | comparable on all parameters on all days to S2
6 | CC(C)CCC[C@@H](C)[C@H]1CC[C@H]2[C@@H]3CC=C4C[C@@H](O)CC[C@]4(CO)[C@H]3CC[C@]12C [A3, 19-hydroxycholesterol] | remained within expected ranges | remained within expected ranges | –
